Assay results from article PMC7217877, “N-AS-triggered SPMs are direct regulators of microglia in a model of Alzheimer’s disease” (Nature Communications, 2020).
“And” between values parts separate entries of the source, which are not always exact repeats. Identical values can stand only once.

Biological target: T1, COX2 S565A (Homo sapiens, UniProt P35354, S565A)
T1 construct: His (N); made in house
T1 sequence (P35354 18-604 S565A): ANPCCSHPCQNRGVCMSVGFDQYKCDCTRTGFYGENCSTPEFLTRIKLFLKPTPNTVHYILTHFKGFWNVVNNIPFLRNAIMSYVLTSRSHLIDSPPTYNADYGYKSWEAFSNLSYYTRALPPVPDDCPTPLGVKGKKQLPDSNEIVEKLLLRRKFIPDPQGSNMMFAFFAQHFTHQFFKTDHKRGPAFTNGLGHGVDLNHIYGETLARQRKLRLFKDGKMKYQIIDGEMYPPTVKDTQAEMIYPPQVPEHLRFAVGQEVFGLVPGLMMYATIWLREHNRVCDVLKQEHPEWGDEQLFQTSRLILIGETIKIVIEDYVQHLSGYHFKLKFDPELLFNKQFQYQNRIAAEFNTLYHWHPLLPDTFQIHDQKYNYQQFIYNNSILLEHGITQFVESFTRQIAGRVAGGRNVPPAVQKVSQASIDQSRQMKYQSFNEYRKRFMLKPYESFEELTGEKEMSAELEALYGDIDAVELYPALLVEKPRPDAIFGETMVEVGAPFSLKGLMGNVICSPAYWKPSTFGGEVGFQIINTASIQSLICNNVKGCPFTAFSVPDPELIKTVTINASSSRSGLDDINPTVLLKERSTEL
Assay: lipid mediator and SPM biosynthesis by recombinant COX2 with 5-LOX (LC-MS/MS)
Type: biochemical
Settings: COX2 S565A + 5-LOX; replicates
Description: Single point mutations in SphK1 (R56A, R57A, R24A, R185A, D178A, and F192A) and COX2 (S565A, N181A, T564A, and S567A) were generated using the In-Fusion Cloning Kits (Clontech) and ORF cDNA expression plasmids of human SphK1 and COX2 gene (Sino Biological Inc, HG15679-NH and HG12036-NH), according to the manufacturer’s instructions. The forward and reverse primers described in Supplementary Table 4. The SphK1 WT, SphK1 mutants, COX2 WT, and COX2 mutant plasmids were transformed in the One shot TOP 10 competent cell (Invitrogen). The bacteria were grown in Luria-Bertani (LB, Invitrogen) plates supplemented with 50 μg ml^−1 kanamycin (Sigma-Aldrich) at 37 °C. The bacterial cell pellets were resuspended in lysis buffer containing 20 mM sodium phosphate (GE Healthcare), 500 mM NaCl (GE Healthcare), 20 mM imidazole (pH 7.4) (GE Healthcare), 0.2 mg ml^−1 lysozyme (Sigma-Aldrich), 20 μg ml^−1 DNase I (Roche), 1 mM MgCl2 (Sigma-Aldrich), and 1 mM PMSF (Sigma-Aldrich) before being lysed by sonication and clarified by centrifugation at 15,493×g for 10 min. Proteins were purified from the soluble fraction using His-Spin Trap columns (GE Healthcare) and the binding and acetylation assays were performed.
Lipid mediators metabololipidomics were performed according to previously described procedures with minor modifications[4],[30]. To confirm the biosynthesis of lipid mediators by recombinant COX2 treated with N-AS or aspirin, 10 U of human recombinant COX2 (Cayman, 60122) was incubated in the presence of 500 μM aspirin (Sigma-Aldrich, A5376) or N-AS (Sigma-Aldrich, 01912) at 37 °C for 30 min. The enzyme was filtered with a Microcon column (Millipore) to remove unreacted aspirin or N-AS and was then resuspended in 0.1 M Tris-HCl (pH 8.0). Next, 500 μM phenol (Sigma-Aldrich) and 1 μM hematin-porcine (Sigma-Aldrich) were added immediately before incubation with 100 μM AA, EPA or DHA (Cayman) at 37 °C for 2 h, respectively. The mixtures were incubated with 30 U of human 5-LOX (Cayman, 60402) containing 2 mM CaCl2 (Sigma-Aldrich), 1 mM ATP (Amresco) and 5 μM 13-HpODE (Cayman) as activators. Also, to validate the importance of residue S565 for N-AS-acetylation of COX2 and production of SPMs, 10 U of the COX2 S565A mutant was used in the above-described method. In addition, to confirm SPM generation in neurons and microglia, these cells were treated with Aβ and sonicated in neuronal and glial culture medium. […] To evaluate the relationship of N-AS and SPM production in microglia, microglia were isolated from WT, APP/PS1, and APP/PS1 treated with N-AS mice at 9 months of age. The microglia were sonicated and resuspended in microglial culture medium. The supernatants were incubated with 100 μM AA, EPA, and DHA (Cayman) at 37 °C for 2 h. A 50 μl aliquot of the mixture from each cell lysate was added to a 250 μl aliquot of 1 ng ml^−1 of 15S-LXA4-d5 (internal standard, Cayman) methanol solution. After vortexing for 10 min and centrifuging at 15,974×g for 5 min, the supernatant was subjected to the analysis of the lipid mediators using an Agilent 6470 Triple Quad LC-MS/MS system (Agilent) coupled to an Agilent 1290 HPLC system. Chromatographic separation was achieved using a Synergi Polar RP (4 μm, 2.0 mm i.d. × 150 mm, Phenomenex). Analytes were eluted with a mobile phase consisting of water: formic acid (100:0.1 v/v) (phase A) and methanol: formic acid (100:0.1 v/v) (phase B) in gradient elution mode for 23 min a flow rate of 0.2 ml min^−1. The elution gradient was as follows: from 0 to 0.1 min the content of phase A was 37% and the content of phase A was decreased to 10% and maintained for 5.5 min. The content of phase A was increased back to 37% at 6.0 min and maintained for 23 min. Quantification was carried out using MRM in negative ionization mode and collision energy of 10–15 eV. The mass transition from Q1 to Q3 is shown in Supplementary Table 2. In this study, the peak areas for all components were automatically integrated using MassHunter B 06.00. […]

For `CC(=O)Oc1ccccc1C(=O)O` [Aspirin, acetylsalicylic acid, reference compound], the “15R-LxA4 quantification (Fig 2c)” value was 9150.99 and 8986.22 and 7776.32 and 8811.42 and 9216.35 and 9050.41, the “RvD1 quantification (Fig 2c)” value was 427.4 and 465.61 and 668.98 and 626.93 and 591.63 and 656.31 and 339.99 and the “RvE1 quantification (Fig 2c)” value was 3219.24 and 3312.36 and 4211.76 and 3281.98 and 3114.22 and 3326.6.
In the case of `CCCCCCCCCCCCC/C=C/[C@@H](O)[C@H](CO)NC(C)=O` [N-AS, N-((2S,3R,E)-1,3-Dihydroxyoctadec-4-en-2-yl)acetamide], the “15R-LxA4 quantification (Fig 2c)” value is reported as 4593.92 and 7037.27 and 8226.06 and 8467.27 and 8518.27, the “RvD1 quantification (Fig 2c)” value is reported as 267.45 and 147.28 and 357.09 and 383.18 and 373.27 and 420.17 and 225.36 and the “RvE1 quantification (Fig 2c)” value is reported as 2644.24 and 1751.77 and 1695.83 and 1984.56 and 2632.92 and 1703.12 and 1993.09.
